Measured values as given in US20260034119A1, “5-METHOXY-N,N-[…][…], THEIR […], AND METHODS FOR TREATMENT OF NEUROLOGICAL, […], AND SUBSTANCE USE DISORDERS” (priority 2023, published 2026).
“Also recorded” adds a separate entry of the source.

Assays:
[1] = Mouse brain tissue binding; format: in vitro ADME; conditions: for fraction unbound: mouse, brain tissue
[2] = Mouse plasma protein binding; format: in vitro ADME; conditions: for fraction unbound: mouse, plasma
C57BL/6J mice [3] = assay: Head twitch response (HTR); format: in vivo, mouse; conditions: s.c., presence or absence of 5-HT1A antagonist WAY-100635
Experimental: The head-twitch response evaluation was performed by trained observers who were blinded to both drug and dose. Mice were habituated to the testing room 30 min. The body weight of each mouse was recorded. The HTR was defined as a rapid rotational movement of the head around the longitudinal axis of the animals' body. Mice were administered with vehicle or WAY100,635 (1 mg/kg or 2 mg/kg, sc). Fifteen minutes after the pretreatment injection mice were administered either 4F, 5-MeO-MET (0.1, 0.3, 1 or 3 mg/kg, sc) or 5-MeO-MET (0.3, 1, 3, and 10 mg/kg, sc) and placed in a novel observation cage. An overhead camera (GoPro HERO9 at a 120 Hz, San Mateo, CA, US) recorded their movements. Observers scored HTR from recorded footage for the first 10-min period.

SERT = target: T1, SERT (Homo sapiens, UniProt P31645); assay: Serotonin transporter (SERT) uptake inhibition; format: cell-based; conditions: compared with 5-HT1A
T1 construct: expressed in transfected cells; host or cells: HEK293-T
Experimental: The uptake inhibition assay was performed the following day. […] To each well, 30 μl of HBSS containing 20 mM HEPES, 0.1% BSA, and 0.01% ascorbic acid and 15 μl of 3× drug dilutions were added. Cells were then incubated at 37° C. for 45 min. A final concentration of 10 μM FFN246 (Aobious) (Henke et al. 2018) was added to each well, and cells were incubated for an additional hour at 37° C. […] Data was plotted as a function of drug concentration, normalized to % citalopram inhibition, and analyzed using “log(inhibitor) vs. response” in GraphPad Prism 8.0.

OCT2 = target: T2, OCT2 (Homo sapiens, UniProt O15244); assay: OCT2 uptake inhibition; format: cell-based; conditions: compared with 5-HT1A
T2 construct: expressed in transfected cells; host or cells: Flp-In T-Rex cell line (ThermoFisher), tetracycline-induced
T2 sequence (O15244 1-555): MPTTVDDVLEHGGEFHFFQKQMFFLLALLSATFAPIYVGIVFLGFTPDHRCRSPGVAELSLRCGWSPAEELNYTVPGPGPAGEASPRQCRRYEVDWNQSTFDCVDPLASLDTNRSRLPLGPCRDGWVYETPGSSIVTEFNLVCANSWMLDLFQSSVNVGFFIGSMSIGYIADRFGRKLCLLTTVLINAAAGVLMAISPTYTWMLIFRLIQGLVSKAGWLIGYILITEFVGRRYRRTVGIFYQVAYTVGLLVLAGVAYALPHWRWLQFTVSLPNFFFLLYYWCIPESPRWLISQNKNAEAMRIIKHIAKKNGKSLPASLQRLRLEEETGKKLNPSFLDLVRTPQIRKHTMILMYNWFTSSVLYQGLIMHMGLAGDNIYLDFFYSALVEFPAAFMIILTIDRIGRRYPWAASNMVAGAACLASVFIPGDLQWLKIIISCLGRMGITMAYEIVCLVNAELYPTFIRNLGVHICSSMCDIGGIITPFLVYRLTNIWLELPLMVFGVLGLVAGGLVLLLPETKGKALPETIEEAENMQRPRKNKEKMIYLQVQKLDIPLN
Experimental: Inducible cell lines stably expressing OCT1, OCT2, or PMAT were generated using the Flp-In T-Rex cell line (ThermoFisher) according to manufacturer recommendations. Cells were maintained in DMEM supplemented with 10% FBS, 100 μg/ml hygromycin B (GoldBio), and 10 μg/ml blasticidin (GoldBio). To measure uptake inhibition, cells were seeded into poly-L-lysine coated clear-bottom 384-well plates at a density of 25,000 cells per well in DMEM containing 10% FBS and 2 μg/ml of tetracycline (Sigma) to induce transporter expression. […] Cells were incubated with drug for 30 min at 37° C. Fluorescent substrate was then added to the cells. […] Cells were incubated with respective substrates for an hour at 37° C. OCT2 cells were read directly in a Victor NIVO plate reader using 495 nm excitation and 580 emission filter for 0.1 s. OCT1 and PMAT cells were washed in HBSS supplemented with 20 mM HEPES pH 7.4 before reading in a Victor NIVO plate reader using 435 nm excitation and 480 nm emission filter for 0.1 s.

5-HT1A N386V = target: T3, 5-HT1A N386V (Homo sapiens, UniProt P08908, N386V); assay: Gi1 BRET at mutant 5-HT1A N386V; format: cell-based; conditions: Gi1 BRET, 5-HT1A N386V^7.39
T3 construct: expressed in transfected cells; host or cells: HEK293-T
T3 sequence (P08908 1-422 N386V): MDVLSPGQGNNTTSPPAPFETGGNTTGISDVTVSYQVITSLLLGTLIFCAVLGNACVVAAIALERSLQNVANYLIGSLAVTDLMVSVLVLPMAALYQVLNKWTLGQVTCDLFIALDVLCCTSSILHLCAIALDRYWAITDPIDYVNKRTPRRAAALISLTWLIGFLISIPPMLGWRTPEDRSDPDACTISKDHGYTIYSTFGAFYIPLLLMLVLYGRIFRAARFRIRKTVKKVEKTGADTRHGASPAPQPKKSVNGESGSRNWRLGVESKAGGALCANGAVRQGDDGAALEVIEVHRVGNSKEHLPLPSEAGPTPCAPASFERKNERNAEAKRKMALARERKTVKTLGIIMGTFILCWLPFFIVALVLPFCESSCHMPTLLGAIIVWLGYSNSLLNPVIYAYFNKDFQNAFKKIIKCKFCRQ

5-HT2A V366N = target: T4, 5-HT2A V366N (Homo sapiens, UniProt P28223, V366N); assay: Gq BRET at mutant 5-HT2A V366N; format: cell-based; conditions: Gq BRET, 5-HT2A V366N^7.39
T4 construct: expressed in transfected cells; host or cells: HEK293-T

C57BL/6J mice [4] = assay: Social interaction test after chronic social defeat stress (CSDS)
[5] = read-out: % Bound Mean (converted)
[6] = replicate R1, read-out: % Bound R1 (converted)
[7] = replicate R2, read-out: % Bound R2 (converted)

T4 sequence (P28223 whole entry V366N): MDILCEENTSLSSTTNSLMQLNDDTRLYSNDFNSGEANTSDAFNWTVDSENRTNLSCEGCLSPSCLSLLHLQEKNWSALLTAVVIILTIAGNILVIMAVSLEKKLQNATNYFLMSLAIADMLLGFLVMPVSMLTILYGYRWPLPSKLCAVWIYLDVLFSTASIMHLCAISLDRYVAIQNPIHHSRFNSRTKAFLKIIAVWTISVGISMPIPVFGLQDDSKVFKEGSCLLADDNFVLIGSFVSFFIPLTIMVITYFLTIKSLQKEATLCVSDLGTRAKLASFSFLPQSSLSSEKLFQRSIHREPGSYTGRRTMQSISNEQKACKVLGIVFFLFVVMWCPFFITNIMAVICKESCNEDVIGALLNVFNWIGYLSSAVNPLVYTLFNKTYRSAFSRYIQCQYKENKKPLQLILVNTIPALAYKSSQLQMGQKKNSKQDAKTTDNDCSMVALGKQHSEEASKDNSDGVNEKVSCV
T1 sequence (P31645 whole entry, species assumed): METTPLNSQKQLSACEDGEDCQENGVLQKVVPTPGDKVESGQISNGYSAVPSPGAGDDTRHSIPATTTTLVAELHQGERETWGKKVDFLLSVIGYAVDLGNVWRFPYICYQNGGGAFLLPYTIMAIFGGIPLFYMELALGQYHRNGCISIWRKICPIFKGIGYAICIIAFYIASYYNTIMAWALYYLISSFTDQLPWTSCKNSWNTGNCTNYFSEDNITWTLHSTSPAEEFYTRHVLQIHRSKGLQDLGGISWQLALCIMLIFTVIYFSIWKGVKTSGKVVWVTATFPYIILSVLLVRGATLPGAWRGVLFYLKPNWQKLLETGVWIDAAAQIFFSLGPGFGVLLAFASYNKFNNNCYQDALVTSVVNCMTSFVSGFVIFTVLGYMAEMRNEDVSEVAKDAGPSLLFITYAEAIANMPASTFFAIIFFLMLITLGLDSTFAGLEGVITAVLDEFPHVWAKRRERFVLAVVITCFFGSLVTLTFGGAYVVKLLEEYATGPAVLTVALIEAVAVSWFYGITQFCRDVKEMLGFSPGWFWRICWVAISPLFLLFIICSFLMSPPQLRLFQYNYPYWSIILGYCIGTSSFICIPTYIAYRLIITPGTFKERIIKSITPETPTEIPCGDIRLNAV

With `COc1ccc2[nH]cc(CCN3CCCC3)c2c1F` [4-F, 5-MeO-PyrT, 4-Fluoro, 5-methoxypyrrolidinyl-tryptamine] the brain tissue binding [1] was 82.5%, the recovery [1] was 88% and the “% Compound remaining at 4 h” value ([1]; 4 h) was 96%. For the same compound, the fraction unbound [1, 5] was 0.175, the fraction unbound ([1]; read-out: % Unbound) was 0.175 and the fraction unbound ([1]; read-out: fu) was 0.175. It also gave a fraction unbound [1, 6] of 0.157, a fraction unbound [1, 7] of 0.193 and a recovery [2] of 84.7%. For the same compound, the “% Compound remaining at 4 h” value ([2]; 4 h) was 105.6%, the fraction unbound [2, 5] was 0.626 and the fraction unbound ([2]; read-out: % Unbound) was 0.626. It also gave a fraction unbound ([2]; read-out: fu) of 0.626, a fraction unbound [2, 6] of 0.68 and a fraction unbound [2, 7] of 0.573. For the same compound, the “head-twitch response (HTR), measure of 5-HT2A-mediated hallucinogenic activity” value (C57BL/6J mice [3]) was “no preclinical signs of hallucinogenic effects; also recorded: did not produce notable HTR”, the “activity at the serotonin transporter” value (SERT) was “substantially lower activity” and the “activity at other neurotransmitter transporters (OCT2)” value (OCT2) was “substantially lower activity”. For the same compound, the pEC50 (5-HT1A N386V) was “(8.52,”, the EC50 (5-HT1A N386V; read-out: EC50) was 3 nM and the pEC50 (5-HT2A V366N) was “(6.8,”. For the same compound, the EC50 (5-HT2A V366N; read-out: EC50) was 157 nM, the “number of resilient mice (SI ratio >1)” value (C57BL/6J mice [4]; drug- vs vehicle-treated stressed animals) was “markedly increases the number of resilient mice” and the “general locomotion at the social interaction test” value (C57BL/6J mice [4]; mice, one s.c. administration) was “no effects of the pharmacological intervention on general locomotion; also recorded: no apparent alterations in locomotor activity”. The “amelioration of SI deficits under WAY-100635 co-administration” value (C57BL/6J mice [4]; stressed mice, co-administered 5-HT1A antagonist WAY-100635) was “blocked”, the “corner time (anxiety-like behavior)” value (C57BL/6J mice [4]; stressed mice, one s.c. administration) was “rescued; also recorded: no longer observed” and the “social interaction deficit induced by chronic social defeat stress” value (C57BL/6J mice [4]; stressed mice, one s.c. administration, test 24 hr post drug) was “rescued; also recorded: rescuing the social interaction deficit”.
